Data from the NIST ThermoML archive (doi:10.1021/je049874h).
Numbers after ± are expanded uncertainties.

Conditions: Liquid

| SMILES | vapor or sublimation pressure (263.15 K) [kPa] | vapor or sublimation pressure (278.15 K) [kPa] | vapor or sublimation pressure (293.15 K) [kPa] |
| --- | --- | --- | --- |
| FCF [difluoromethane] | 580.2 ± 2.8 | 949.6 ± 3.6 | 1473.2 ± 4.8 |
| CCCC [butane] | 69.6 ± 2 | 125.1 ± 2 | 209.4 ± 2.1 |
